Results on three compounds are retold here after ChEMBL document CHEMBL1135773, “Purine and pyrimidine (P2) receptors as drug targets” (J Med Chem, 2002).

The target of assay [1] is T1, P2X purinoceptor 4 (Homo sapiens, UniProt Q99571).
T1 sequence (Q99571 whole entry): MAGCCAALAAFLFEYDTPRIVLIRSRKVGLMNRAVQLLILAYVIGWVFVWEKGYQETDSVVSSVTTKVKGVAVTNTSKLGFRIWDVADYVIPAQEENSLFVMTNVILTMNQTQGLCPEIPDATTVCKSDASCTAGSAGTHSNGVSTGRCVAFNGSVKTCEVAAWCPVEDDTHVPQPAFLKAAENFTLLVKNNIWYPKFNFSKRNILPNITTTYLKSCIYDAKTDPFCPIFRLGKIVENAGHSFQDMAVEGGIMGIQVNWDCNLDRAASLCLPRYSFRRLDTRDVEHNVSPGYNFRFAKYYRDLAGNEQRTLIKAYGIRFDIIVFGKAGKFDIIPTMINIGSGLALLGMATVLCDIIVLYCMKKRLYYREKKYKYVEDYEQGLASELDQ
Put plainly: Antagonist activity against recombinant human P2X purinoceptor 4 (P2X4). It counts as functional.

Assay [2] concerns the target T2, P2X purinoceptor 4 (Rattus norvegicus, UniProt P51577).
T2 sequence (P51577 whole entry): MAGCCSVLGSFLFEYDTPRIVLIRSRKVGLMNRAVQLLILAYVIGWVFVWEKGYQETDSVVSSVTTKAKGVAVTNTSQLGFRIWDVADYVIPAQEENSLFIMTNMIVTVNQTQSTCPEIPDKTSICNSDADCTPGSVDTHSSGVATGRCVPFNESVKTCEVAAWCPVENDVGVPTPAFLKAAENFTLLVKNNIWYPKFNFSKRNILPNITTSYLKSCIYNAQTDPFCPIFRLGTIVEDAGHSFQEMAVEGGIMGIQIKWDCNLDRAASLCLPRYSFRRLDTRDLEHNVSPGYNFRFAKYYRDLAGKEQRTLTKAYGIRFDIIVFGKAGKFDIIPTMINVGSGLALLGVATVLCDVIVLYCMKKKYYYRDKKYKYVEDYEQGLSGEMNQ
Put plainly: Antagonist activity against recombinant rat P2X purinoceptor 4 (P2X4) at 30 uM, expressed in Xenopus oocytes. The format is functional, cell-based, Oocyte.

A further assay has as its target T3, P2X purinoceptor 5 (Rattus norvegicus, UniProt P51578).
T3 sequence (P51578 whole entry): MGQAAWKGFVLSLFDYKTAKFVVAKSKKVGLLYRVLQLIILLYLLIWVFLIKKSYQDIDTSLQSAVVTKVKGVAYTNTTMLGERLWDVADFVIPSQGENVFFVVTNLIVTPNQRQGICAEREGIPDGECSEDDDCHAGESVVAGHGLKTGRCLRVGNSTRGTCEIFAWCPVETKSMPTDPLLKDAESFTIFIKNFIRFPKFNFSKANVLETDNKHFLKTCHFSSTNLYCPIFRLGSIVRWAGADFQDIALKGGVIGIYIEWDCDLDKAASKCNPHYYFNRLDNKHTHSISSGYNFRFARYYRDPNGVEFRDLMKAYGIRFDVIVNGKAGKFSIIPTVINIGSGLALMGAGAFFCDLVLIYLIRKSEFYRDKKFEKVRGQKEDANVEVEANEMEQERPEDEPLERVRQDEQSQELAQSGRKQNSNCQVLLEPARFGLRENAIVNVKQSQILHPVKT
Put plainly: Antagonist activity against recombinant rat P2X purinoceptor 5 (P2X5). It counts as functional.

Another assay deals with P2X purinoceptor 6 (Rattus norvegicus, UniProt P51579). The assay is described as follows: Antagonist activity against recombinant rat P2X purinoceptor 6 (P2X6 ). It counts as functional.
P2X purinoceptor 6, sequence (P51579 whole entry): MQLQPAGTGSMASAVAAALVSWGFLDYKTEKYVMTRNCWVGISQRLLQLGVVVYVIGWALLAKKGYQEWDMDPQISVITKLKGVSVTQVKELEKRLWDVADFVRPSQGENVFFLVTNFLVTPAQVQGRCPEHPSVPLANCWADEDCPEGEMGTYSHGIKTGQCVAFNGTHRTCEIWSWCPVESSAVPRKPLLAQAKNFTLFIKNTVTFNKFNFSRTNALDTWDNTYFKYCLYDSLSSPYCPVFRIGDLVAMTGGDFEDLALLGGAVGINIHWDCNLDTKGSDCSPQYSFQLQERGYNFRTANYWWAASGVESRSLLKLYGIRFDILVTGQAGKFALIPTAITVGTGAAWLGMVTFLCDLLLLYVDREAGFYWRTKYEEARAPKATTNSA
In the next assay the target is T4, P2X purinoceptor 2 (Rattus norvegicus, UniProt P49653).
T4 sequence (P49653 whole entry): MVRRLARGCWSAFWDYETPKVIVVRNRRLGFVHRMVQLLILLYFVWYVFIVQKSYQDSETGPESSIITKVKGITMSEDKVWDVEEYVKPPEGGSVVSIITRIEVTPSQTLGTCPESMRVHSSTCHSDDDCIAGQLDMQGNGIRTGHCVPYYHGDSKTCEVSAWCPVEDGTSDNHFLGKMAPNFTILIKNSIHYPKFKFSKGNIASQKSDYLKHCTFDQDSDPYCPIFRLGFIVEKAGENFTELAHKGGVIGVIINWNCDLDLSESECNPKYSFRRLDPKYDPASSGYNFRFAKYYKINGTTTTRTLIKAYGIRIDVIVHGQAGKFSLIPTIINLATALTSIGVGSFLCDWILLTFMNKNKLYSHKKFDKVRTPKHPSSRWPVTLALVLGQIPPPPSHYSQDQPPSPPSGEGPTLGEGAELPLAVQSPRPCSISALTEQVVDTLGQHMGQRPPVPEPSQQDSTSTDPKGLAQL
The assay is described as follows: Antagonist activity against recombinant rat receptor P2X purinoceptor 2 (P2X2) at 10 uM, expressed in Xenopus oocytes. It counts as functional, cell-based, Oocyte.

Assay [3] deals with T5, P2Y purinoceptor 2 (Homo sapiens, UniProt P41231). Put plainly: Evaluated for agonist activity against phospholipase C coupled recombinant human P2Y purinoceptor 2 (P2Y2). The format is functional.
T5 sequence (P41231 whole entry): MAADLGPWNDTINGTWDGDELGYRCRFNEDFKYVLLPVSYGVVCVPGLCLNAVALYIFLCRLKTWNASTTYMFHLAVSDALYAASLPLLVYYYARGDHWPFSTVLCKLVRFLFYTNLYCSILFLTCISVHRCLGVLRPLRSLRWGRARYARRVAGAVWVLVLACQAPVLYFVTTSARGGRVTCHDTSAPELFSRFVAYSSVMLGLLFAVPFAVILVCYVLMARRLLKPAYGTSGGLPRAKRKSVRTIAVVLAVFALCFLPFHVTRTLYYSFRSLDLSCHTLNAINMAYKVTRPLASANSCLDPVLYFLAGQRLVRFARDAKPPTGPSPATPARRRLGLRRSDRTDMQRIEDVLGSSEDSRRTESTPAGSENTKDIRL
The target in the next assay is T6, P2X purinoceptor 3 (Homo sapiens, UniProt P56373).
T6 sequence (P56373 whole entry): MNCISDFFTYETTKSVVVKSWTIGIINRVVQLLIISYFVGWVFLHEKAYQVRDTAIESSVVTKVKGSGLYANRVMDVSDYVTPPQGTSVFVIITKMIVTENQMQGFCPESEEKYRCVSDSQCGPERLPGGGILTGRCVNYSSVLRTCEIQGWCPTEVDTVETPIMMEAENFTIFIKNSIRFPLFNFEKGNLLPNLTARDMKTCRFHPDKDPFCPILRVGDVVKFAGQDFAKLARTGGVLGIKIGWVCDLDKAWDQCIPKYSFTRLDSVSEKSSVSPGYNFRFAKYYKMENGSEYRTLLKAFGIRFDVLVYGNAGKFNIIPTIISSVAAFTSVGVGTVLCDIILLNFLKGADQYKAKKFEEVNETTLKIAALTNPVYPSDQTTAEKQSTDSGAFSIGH
Put plainly: Antagonist activity against recombinant human P2X purinoceptor 3 (P2X3 ). The format is functional.

A further assay concerns the target T7, P2X purinoceptor 7 (Homo sapiens, UniProt Q99572).
T7 sequence (Q99572 whole entry): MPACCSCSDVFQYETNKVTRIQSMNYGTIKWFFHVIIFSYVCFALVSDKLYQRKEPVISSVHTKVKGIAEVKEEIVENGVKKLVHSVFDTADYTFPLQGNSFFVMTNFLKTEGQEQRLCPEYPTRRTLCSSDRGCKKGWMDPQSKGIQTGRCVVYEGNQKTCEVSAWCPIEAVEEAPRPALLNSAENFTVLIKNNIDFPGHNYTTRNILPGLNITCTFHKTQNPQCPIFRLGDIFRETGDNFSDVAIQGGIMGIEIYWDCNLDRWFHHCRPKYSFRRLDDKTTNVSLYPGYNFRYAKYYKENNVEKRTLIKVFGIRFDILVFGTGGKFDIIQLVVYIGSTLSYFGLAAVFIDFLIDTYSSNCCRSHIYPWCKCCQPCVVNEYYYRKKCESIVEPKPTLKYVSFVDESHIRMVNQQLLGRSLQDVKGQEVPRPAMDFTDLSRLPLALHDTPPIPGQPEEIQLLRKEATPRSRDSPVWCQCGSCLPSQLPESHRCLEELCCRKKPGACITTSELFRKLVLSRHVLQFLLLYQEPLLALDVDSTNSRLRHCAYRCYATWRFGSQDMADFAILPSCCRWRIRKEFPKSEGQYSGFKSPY
Put plainly: Antagonist activity against recombinant human P2X purinoceptor 7 (P2X7). It counts as functional.

The target in the next assay is P2Y purinoceptor 12 (Rattus norvegicus, UniProt Q9EPX4). Put plainly: Antagonist activity against phospholipase C coupled rat P2Y purinoceptor 12 (P2Y12). The format is functional.
P2Y purinoceptor 12, sequence (Q9EPX4 whole entry): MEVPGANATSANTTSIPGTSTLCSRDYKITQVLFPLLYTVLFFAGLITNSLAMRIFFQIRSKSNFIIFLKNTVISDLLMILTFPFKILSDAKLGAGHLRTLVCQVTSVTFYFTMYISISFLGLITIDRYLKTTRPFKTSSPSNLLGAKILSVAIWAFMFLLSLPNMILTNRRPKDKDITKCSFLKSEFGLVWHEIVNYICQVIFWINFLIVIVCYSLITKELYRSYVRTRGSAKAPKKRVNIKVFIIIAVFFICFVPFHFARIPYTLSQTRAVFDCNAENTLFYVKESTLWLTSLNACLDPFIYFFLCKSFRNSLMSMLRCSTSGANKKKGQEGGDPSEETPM
Assay [4] addresses P2Y purinoceptor 4 (Homo sapiens, UniProt P51582). The assay is described as follows: The compound was evaluated for antagonist activity against phospholipase C coupled recombinant human P2Y purinoceptor 4 (P2Y4). It counts as functional.
Assay [5] deals with P2Y purinoceptor 4 (Rattus norvegicus, UniProt O35811). Put plainly: The compound was evaluated for agonist activity against phospholipase C coupled recombinant rat P2Y purinoceptor 4 (P2Y4). It counts as functional.
P2Y purinoceptor 4 (Rattus norvegicus, UniProt O35811), sequence (O35811 whole entry): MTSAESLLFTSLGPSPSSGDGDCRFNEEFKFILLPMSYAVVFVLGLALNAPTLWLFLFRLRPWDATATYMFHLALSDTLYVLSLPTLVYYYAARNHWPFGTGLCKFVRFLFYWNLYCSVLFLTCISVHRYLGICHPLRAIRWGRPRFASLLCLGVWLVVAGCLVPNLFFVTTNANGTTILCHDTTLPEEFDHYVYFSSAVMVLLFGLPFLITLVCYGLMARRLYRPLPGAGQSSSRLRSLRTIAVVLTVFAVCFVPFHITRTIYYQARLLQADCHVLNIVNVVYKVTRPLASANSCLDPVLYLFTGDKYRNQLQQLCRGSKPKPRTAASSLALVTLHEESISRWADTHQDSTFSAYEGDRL
A further assay concerns the target P2Y purinoceptor 6 (Homo sapiens, UniProt Q15077). Put plainly: The compound was evaluated for agonist activity against phospholipase C coupled recombinant human P2Y purinoceptor 6 (P2Y6). It counts as functional.
Assay [6] deals with T8, P2X purinoceptor 1 (Homo sapiens, UniProt P51575).
T8 sequence (P51575 whole entry): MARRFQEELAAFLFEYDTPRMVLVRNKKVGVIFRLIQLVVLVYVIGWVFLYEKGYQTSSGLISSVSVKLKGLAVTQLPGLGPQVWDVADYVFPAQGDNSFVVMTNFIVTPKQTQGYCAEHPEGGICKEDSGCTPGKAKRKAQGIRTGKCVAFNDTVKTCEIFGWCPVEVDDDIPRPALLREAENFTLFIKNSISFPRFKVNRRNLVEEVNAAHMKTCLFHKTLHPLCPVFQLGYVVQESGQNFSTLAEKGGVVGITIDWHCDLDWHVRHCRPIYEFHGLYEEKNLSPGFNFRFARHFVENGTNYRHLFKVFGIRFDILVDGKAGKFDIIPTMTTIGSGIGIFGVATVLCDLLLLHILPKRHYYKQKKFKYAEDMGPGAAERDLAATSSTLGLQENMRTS
Put plainly: Antagonist activity against recombinant human P2X purinoceptor 1 (P2X1 ). The format is functional.

The target of assay [7] is T9, P2X purinoceptor 1 (Rattus norvegicus, UniProt P47824). The assay is described as follows: Dissociation constant of the compound at P2X purinoceptor 1 (P2X1) from rat vas deferens was reported.
T9 sequence (P47824 whole entry, looked up): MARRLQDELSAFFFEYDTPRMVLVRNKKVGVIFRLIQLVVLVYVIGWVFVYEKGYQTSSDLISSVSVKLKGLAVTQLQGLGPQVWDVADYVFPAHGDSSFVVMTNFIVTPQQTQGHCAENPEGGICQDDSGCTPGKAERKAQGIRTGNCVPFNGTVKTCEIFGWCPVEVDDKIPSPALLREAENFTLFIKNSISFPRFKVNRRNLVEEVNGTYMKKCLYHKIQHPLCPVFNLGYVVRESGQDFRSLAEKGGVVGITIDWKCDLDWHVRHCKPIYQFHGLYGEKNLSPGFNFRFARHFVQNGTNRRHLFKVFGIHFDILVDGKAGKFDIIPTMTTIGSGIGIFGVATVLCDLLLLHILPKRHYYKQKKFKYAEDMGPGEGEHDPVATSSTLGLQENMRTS
For assay [8], the target named is T9, P2X purinoceptor 1. The assay is described as follows: The compound was evaluated for antagonist activity against P2X purinoceptor 1 (P2X1) receptor from rat vas deferens. The format is functional.
For assay [9], the target named is P2Y purinoceptor 1 (Cavia porcellus). Put plainly: The compound was evaluated for antagonistic activity at P2Y purinoceptor 1 (P2Y1) from guinea pig taenia coli.
Assay [10] has as its target T5, P2Y purinoceptor 2. Put plainly: The compound was evaluated for antagonistic activity against P2Y purinoceptor 2 (P2Y2). The format is functional.
The nature of assay [11]: The compound was evaluated for antagonist activity against P2X purinoceptor. The format is functional.

P2Y purinoceptor 6, sequence (Q15077 whole entry): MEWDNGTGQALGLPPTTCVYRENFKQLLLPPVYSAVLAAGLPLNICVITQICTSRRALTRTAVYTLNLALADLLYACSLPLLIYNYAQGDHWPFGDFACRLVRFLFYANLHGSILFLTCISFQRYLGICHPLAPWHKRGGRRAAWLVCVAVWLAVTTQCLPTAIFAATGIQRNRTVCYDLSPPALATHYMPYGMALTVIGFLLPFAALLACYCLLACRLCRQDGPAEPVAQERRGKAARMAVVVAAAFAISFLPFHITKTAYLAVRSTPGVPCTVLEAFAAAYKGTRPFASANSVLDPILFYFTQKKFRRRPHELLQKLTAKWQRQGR
P2Y purinoceptor 4 (Homo sapiens, UniProt P51582), sequence (P51582 whole entry): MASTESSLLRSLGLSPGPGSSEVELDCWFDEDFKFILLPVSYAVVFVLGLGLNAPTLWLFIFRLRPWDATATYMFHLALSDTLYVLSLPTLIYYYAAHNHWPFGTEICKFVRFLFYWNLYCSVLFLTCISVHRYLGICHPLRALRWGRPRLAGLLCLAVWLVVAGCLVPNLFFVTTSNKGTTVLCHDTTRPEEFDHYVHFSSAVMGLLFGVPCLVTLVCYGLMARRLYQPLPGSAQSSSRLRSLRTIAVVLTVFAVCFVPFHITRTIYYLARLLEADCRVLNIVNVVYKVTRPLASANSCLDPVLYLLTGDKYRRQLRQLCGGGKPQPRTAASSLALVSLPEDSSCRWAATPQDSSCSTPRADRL

Turning to `Nc1ncnc2c1ncn2[C@@H]1O[C@H](COP(=O)(O)OP(=O)(O)OP(=O)(O)O)[C@@H](O)[C@H]1O` [ADENOSINE TRIPHOSPHATE], the EC50 (as a rule, the concentration at which the effect is half-maximal) at P2X purinoceptor 4 [1] was 500 nM; on P2X purinoceptor 4 [2], 1000 nM; at P2X purinoceptor 5 it was 1000 nM; at P2X purinoceptor 6, 1000 nM; on P2X purinoceptor 2, 1400 nM; at P2Y purinoceptor 2 [3] it was 230 nM. For the same compound, the EC50 on P2X purinoceptor 3 is 340 nM; at P2X purinoceptor 7, 780000 nM; at P2Y purinoceptor 12 it was 3190 nM; on P2Y purinoceptor 4 [4] it was 43000 nM; on P2Y purinoceptor 4 [5], 1800 nM; on P2Y purinoceptor 6, over 100000 nM. The EC50 on P2X purinoceptor 1 [6] was found to be 56 nM.
Consider `Cc1nc(/N=N/c2ccc(C(=O)O)c(Cl)c2)c(COP(=O)(O)O)c(C=O)c1O`, for which the Kd (commonly a measure of binding affinity in units of concentration) was 1600 nM on P2X purinoceptor 1 [7] and 2900 nM in assay [9]. Also, at P2X purinoceptor 1 [8], the IC50 (in general, the concentration needed to halve the response being measured) turned out to be 9600 nM.
As to `Cc1cc(-c2ccc(/N=N/c3c(S(=O)(=O)O)cc4cc(S(=O)(=O)O)cc(N)c4c3O)c(C)c2)ccc1/N=N/c1c(S(=O)(=O)O)cc2cc(S(=O)(=O)O)cc(N)c2c1O` [TRYPAN BLUE], the figures for the IC50 (at P2Y purinoceptor 2 [10]; in [11]) were 171000 nM and 386000 nM, respectively.
